Assay results: US11512089B2, “Substituted [1,2,4]triazolo[3,4-a]phthalazines as modulators of GABAA receptor activity” (SHANGHAI SIMR BIOTECHNOLOGY CO., LTD, priority 2018, dated 2022)
≈ marks a conversion by molar mass, not a printed value.

System: not listed separately
Test: Kinetic solubility in 50 mM phosphate buffer pH 7.4
Assay type: physicochemical
Settings: aqueous buffer, kinetic from dmso stock, 50 mM phosphate buffer pH 7.4, 2% DMSO, room temperature
Method: 50 mM phosphate buffer pH=7.4: 0.39 g of NaH2PO4.2H2O, and 1.4025 g of Na2HPO4 were weighted and placed in an erlenmeyer flask, 240 mL of water was added. The solid was dissolved and mixed thoroughly, the pH value was adjusted to 7.4 with 10M NaOH solution, and the resulting solution was transferred to a 250 mL volumetric flask, followed by adding water to the mark.
Waters e2695 HPLC high performance liquid chromatography, Mettler XSE105 analytical balance.
Firstly, a 10 mM stock solution with DMSO as the solvent was prepared, and was diluted with a diluent (ACN: PB buffer 50:50) into 1 μM-200 μM as standard solution.
Kinetic solubility. 30 μL of the stock solution was placed in a 2 mL centrifuge tube, 1470 μL of 50 mM phosphate buffer (pH 7.4) (containing DMSO at a final concentration of 2%) was added. The mixture was shaken at room temperature (1000 rpm/min) for 24 hours, and then filtered. The filtrate was tested by high performance liquid chromatography (UV).

solubility kinetic at 24 h [µg/mL] | Compound
27.7 (≈ 55 µM) | COCc1cc(-c2nnc3c4ccccc4c(OCc4ccc(C(=O)N[C@H](C)COC)cn4)nn23)no1 [Compound 09, (R)—N-(2-methoxy-1-methyl-ethyl)-6-[3-(5-methoxymethyl-isoxazol-3-yl)-[1,2,4]triazolo[3,4-a]phthalazin-6-yloxymethyl]-nicotinamide]
0.57 (≈ 1.05 µM) | COCc1cc(-c2nnc3c4ccccc4c(OCc4ccc(C(=O)NCCOC(F)(F)F)cn4)nn23)no1 [Compound 13, 6-[3-(5-methoxymethyl-isoxazol-3-yl)-[1,2,4]triazolo[3,4-a]phthalazin-6-yloxymethyl]-N-(2-trifluoromethoxy-ethyl)-nicotinamide]
35.7 (≈ 68.9 µM) | COCc1cc(-c2nnc3c4ccccc4c(OCc4ccc(C(=O)NC(C)(C)COC)cn4)nn23)no1 [Compound 14, N-(2-methoxy-1,1-dimethyl-ethyl)-6-[3-(5-methoxymethyl-isoxazol-3-yl)-[1,2,4]triazolo[3,4-a]phthalazin 6-yloxymethyl]-nicotinamide]
49.4 (≈ 104 µM) | COCc1cc(-c2nnc3c4ccccc4c(OCc4ccc(C(=O)NCCO)cn4)nn23)no1 [Compound 16, N-(2-hydroxy-ethyl)-6-[3-(5-methoxymethyl-isoxazol-3-yl)-[1,2,4]triazolo[3,4-a]phthalazin-6-yloxymethyl]-nicotinamide]
1.18 (≈ 2.34 µM) | COCc1cc(-c2nnc3c4ccccc4c(OCc4ccc(C(=O)NC5CC(F)C5)cn4)nn23)no1 (centres unmarked) [Compound 21]
8.92 (≈ 18.7 µM) | COCc1cc(-c2nnc3c4ccccc4c(OCc4ccc(C(=O)NCCF)cn4)nn23)no1 [Compound 22]
2.71 (≈ 5.16 µM) | COCc1cc(-c2nnc3c4ccccc4c(OCc4ccc(C(=O)NCC(F)(F)CO)cn4)nn23)no1 [Compound 25]
5.58 (≈ 10.6 µM) | COCc1cc(-c2nnc3c4ccccc4c(OCc4ccc(C(=O)NC(C)C(F)(F)F)cn4)nn23)no1 (centres unmarked) [Compound 27]
0.8 (≈ 1.85 µM) | COCc1cc(-c2nnc3c4ccccc4c(OCc4ccc(C(N)=O)cn4)nn23)no1 [Compound 36]
1.46 (≈ 2.77 µM) | COCc1cc(-c2nnc3c4ccccc4c(OCc4ccc(C(=O)N(C)CC(F)(F)F)cn4)nn23)no1 [Compound 58]

Further lines, the molecule ahead of its results:

Compound | solubility kinetic at 24 h [µg/mL]
COCc1cc(-c2nnc3c4ccccc4c(OCc4ccc(C(=O)NC5CCOCC5)cn4)nn23)no1 [Compound 04, 6-[3-(5-methoxymethyl-isoxazol-3-yl)-[1,2,4]triazolo[3,4-a]phthalazin-6-yloxymethyl]-N-(tetrahydro-pyran-4-yl)-nicotinamide] | 13.1 (≈ 25.5 µM)
COCc1cc(-c2nnc3c4ccccc4c(OCc4ccc(C(=O)NC5(C#N)CC5)cn4)nn23)no1 [Compound 19] | 1.06 (≈ 2.14 µM)
COCc1cc(-c2nnc3c4ccccc4c(OCc4ccc(C(=O)NC5CCOC5)cn4)nn23)no1 (centres unmarked) [Compound 26, 6-[3-(5-methoxymethyl-isoxazol-3-yl)-[1,2,4]triazolo[3,4-a]phthalazin-6-yloxymethyl]-N-(tetrahydrofuran-3-yl)-nicotinamide] | 20.3 (≈ 40.6 µM)
COCc1cc(-c2nnc3c4ccccc4c(OCc4ccc(C(=O)NC5CCC(F)(F)CC5)cn4)nn23)no1 [Compound 33] | 2.99 (≈ 5.44 µM)
COCc1cc(-c2nnc3c4ccccc4c(OCc4ccc(C(=O)NC5CCC(F)(F)C5)cn4)nn23)no1 (centres unmarked) [Compound 35] | 5.62 (≈ 10.5 µM)
COCc1cc(-c2nnc3c4ccccc4c(OCc4ccc(C(=O)N5CC(O)C5)cn4)nn23)no1 [Compound 41] | 6.57 (≈ 13.5 µM)
COCc1cc(-c2nnc3c4ccccc4c(OCc4ccc(C(=O)N5CC(C)OC(C)C5)cn4)nn23)no1 (centres unmarked) [Compound 44] | 74.6 (≈ 141 µM)
COCc1cc(-c2nnc3c4ccccc4c(OCc4ccc(C(=O)N(C)C5CC5)cn4)nn23)no1 [Compound 50] | 3.75 (≈ 7.72 µM)
COCc1cc(-c2nnc3c4ccccc4c(OCc4ccc(C(=O)N5CCC(F)(F)C5)cn4)nn23)no1 [Compound 51] | 5.62 (≈ 10.8 µM)
COCCN(CCOC)C(=O)c1ccc(COc2nn3c(-c4cc(COC)on4)nnc3c3ccccc23)nc1 [Compound 52] | 51.9 (≈ 94.7 µM)
COCc1cc(-c2nnc3c4ccccc4c(OCc4ccc(C(=O)N5CCN(C)C(=O)C5)cn4)nn23)no1 [Compound 53] | 28 (≈ 53 µM)
COCc1cc(-c2nnc3c4ccccc4c(OCc4ccc(C(=O)N5CCCOCC5)cn4)nn23)no1 [Compound 55] | 102 (≈ 197 µM)
COCc1cc(-c2nnc3c4ccccc4c(OCc4ccc(C(=O)N5CCC(OC)CC5)cn4)nn23)no1 [Compound 57, (6-(((3-(5-(methoxymethyl)isoxazol-3-yl)-[1,2,4]triazolo[3,4-a]phthalazin-6-yl)oxy)methyl)pyridin-3-yl)(4-methoxypiperidin-1-yl)methanone] | 26.5 (≈ 50 µM)
Cc1cc(-c2nnc3c4ccccc4c(OCc4ccc(C(=O)NC5CCOCC5)cn4)nn23)no1 [reference compound] | 3.88 (≈ 7.99 µM)

Target: T1, α5-GABAA receptor (Homo sapiens, UniProt P18507+P31644)
T1 construct: expressed in transfected cells; host or cells: HEK-293 (monoclonal, stably transfected)
T1 sequence (P31644 32-462): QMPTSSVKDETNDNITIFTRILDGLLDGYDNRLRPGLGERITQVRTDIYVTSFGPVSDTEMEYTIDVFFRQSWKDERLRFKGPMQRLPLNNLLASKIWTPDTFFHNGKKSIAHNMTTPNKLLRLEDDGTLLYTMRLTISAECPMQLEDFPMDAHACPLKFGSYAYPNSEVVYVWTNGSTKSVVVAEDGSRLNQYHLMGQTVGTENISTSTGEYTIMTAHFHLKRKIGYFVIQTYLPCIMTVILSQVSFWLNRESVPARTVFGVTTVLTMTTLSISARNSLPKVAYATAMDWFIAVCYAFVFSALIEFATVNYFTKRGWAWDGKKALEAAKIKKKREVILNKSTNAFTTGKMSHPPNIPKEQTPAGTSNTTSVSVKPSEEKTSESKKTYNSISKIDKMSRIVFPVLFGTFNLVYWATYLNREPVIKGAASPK
T1 sequence (P28472 26-473 partner): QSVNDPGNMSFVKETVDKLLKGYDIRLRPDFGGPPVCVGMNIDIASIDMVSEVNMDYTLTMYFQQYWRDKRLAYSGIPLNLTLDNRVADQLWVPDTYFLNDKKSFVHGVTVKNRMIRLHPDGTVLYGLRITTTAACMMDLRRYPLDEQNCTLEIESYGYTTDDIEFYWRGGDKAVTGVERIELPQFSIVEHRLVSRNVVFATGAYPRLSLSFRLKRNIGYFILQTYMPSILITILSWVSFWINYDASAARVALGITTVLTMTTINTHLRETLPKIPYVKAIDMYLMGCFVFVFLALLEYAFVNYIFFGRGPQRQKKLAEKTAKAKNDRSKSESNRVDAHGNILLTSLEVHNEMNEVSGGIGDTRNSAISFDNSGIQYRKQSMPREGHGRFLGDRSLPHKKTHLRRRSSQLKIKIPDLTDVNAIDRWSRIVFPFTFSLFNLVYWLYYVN
T1 sequence (P18507 40-467 isoform P18507-1 limits assumed): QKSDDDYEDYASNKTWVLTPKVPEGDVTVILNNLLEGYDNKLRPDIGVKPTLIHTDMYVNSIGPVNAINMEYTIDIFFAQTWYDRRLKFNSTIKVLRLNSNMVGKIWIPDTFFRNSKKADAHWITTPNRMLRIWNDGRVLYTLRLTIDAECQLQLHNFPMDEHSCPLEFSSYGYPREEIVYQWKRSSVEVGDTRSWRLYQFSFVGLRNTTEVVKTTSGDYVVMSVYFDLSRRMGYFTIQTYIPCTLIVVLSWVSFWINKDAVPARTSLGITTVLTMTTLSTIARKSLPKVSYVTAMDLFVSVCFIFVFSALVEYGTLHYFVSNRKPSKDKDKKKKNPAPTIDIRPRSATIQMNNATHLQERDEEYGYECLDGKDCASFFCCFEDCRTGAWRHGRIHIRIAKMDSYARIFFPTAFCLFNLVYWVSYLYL
Test: Whole cell patch clamp, inverse agonism efficacy on GABA-induced current in HEK-293 cells expressing α5-GABAA receptor
Assay type: cell-based
Settings: HEK293; compound 100 nM, GABA 0.05 μM; ratio to reference compound Example 7 in CN106854207A in the same batch
Method: The inventors used electrophysiological methods to determine the inverse agonist efficacy of the substances to be tested. The detailed procedures are as follows:
(1) Different subunits of GABAA receptors were expressed in human embryonic kidney cells 293 (HEK293). The cells were cultured in a culture medium and used as a cell model for screening potential analgesics. The α, β and γ subunits are necessary to form complete functional GABAA receptors. In this example, the inventors have established the following cell model: (a) α5 subunit (protein sequence is GenBank accession number: NM_000810.3), (33 subunit (protein sequence is GenBank accession number: NM_000814.5) and γ2 subunit (protein sequence is GenBank accession number: NM_000816.3) were expressed in HEK-293 cell line at the same time, followed by screening the monoclonal cell line. This cell line contained α5-GABAA receptor and had complete GABAA receptor function.
(2) The monoclonal stably transfected HEK-293 cells expressing α5-GABAA receptor were cultured in 10 cm culture dishes. The cells were passaged after reaching 80-90% confluence. During passaging, the culture medium was removed and discarded, 3 mL of DPBS (phosphate buffered saline, Gibco™) was added to the dishes, the dishes were shaken slightly, and DPBS was removed and discarded. 1 mL of trypsin (TrypLE Express, Gibco™) was added and the cells were digested at 37° C. for 1-2 minutes. Then 3 mL of complete medium (DMEM+10% FBS (Gibco™)) was added and the cells at the bottom of the culture dishes were dispersed. The cell suspension were transferred to a 15 mL centrifugal tube (Corning™) and then centrifuged at 200 g for 3 minutes. The supernatant was discarded, 4 mL of complete medium was added, and the cells were resuspended by gently blowing. The cell suspension was diluted by 1:5 or 1:10 for subculturing. The cell suspension was diluted by 1:12 for electrophysiology experiment, and added to a 24 well plate (Corning™) with a glass slide pre-treated with poly-D-lysine placed thereon; the experiment was initiated after the cells were adhered to the slide. The cells for electrophysiology experiment were maintained in culture for no more than 48 hours before use.
(3) Compound concentration: for screening, all compounds were diluted to a final concentration of 100 nM and the concentration of GABA was 0.05 μM. The compounds were at the concentration of 0.3 nM, 3 nM, 10 nM, 30 nM, 100 nM and 300 nM in dose-inverse agonism efficacy (%) experiment. The whole cell patch clamp technique was used in electrophysiology experiments, which can refer to the literature (I. Lecker, Y. Yin, D. S. Wang and B. A. Orser, (2013) Potentiation of GABAA receptor activity by volatile anaesthetics is reduced by α5-GABAA receptor-preferring inverse agonists, British Journal of Anaesthesia 110 (S1): i73-i81). The extracellular solution (ECS) contained: 150 mM NaCl, 5 mM KCl, 2.5 mM CaCl2, 1 mM MgCl2, 10 mM HEPES and 10 mM glucose (pH 7.4); Patch electrodes were filled with an intracellular solution containing: 140 mM CsCl, 11 mM EGTA, 10 mM HEPES, 2 mM CaCl2, 1 mM MgCl2, 4 mM MgATP, 2 mM TEA (pH 7.3). The currents were recorded by an EPC-10 amplifier and the PatchMaster software (HEKA). Patch electrodes with a resistance of 4-6 MΩ were pulled from borosilicate glass. The ALA-VC3-8PP™ system was used for extracellular administration. Separate cells that grew independently was selected for recording. During recording, the membrane voltage was clamped at −60 mV. During experiment, the cells were firstly perfused with ECS for 20 seconds. When the baseline reached to a stable state, the cells were then perfused with GABA solution. Then the current induced by GABA could be detected. After about 20 to 40 seconds, the current was stable. ECS was switched to compounds solution and the effects of the compounds were detected. At last, the perfusion solution was switched to ECS. […]

Emax at 0.1 µM [%] | Compound
92.1 | COCc1cc(-c2nnc3c4ccccc4c(OCc4ccc(C(=O)NC5CC(F)(F)C5)cn4)nn23)no1 [Compound 03, N-(3,3-difluoro-cyclobutyl)-6-[3-(5-methoxymethyl-isoxazol-3-yl)-[1,2,4]triazolo[3,4-a]phthalazin-6-yloxymethyl]-nicotinamide]
110 | COCCCNC(=O)c1ccc(COc2nn3c(-c4cc(COC)on4)nnc3c3ccccc23)nc1 [Compound 08, 6-[3-(5-methoxymethyl-isoxazol-3-yl)-[1,2,4]triazolo[3,4-a]phthalazin-6-yloxymethyl]-N-(3-methoxy-propyl)-nicotinamide]
105 | COCc1cc(-c2nnc3c4ccccc4c(OCc4ccc(C(=O)NC5COC5)cn4)nn23)no1 [Compound 17, 6-[3-(5-methoxymethyl-isoxazol-3-yl)-[1,2,4]triazolo[3,4-a]phthalazin-6-yloxymethyl]-N-oxetan-3-yl-nicotinamide]
94.6 | COCc1cc(-c2nnc3c4ccccc4c(OCc4ccc(C(=O)N5CC(F)(F)C5)cn4)nn23)no1 [Compound 46, (3,3-difluoroazetidin-1-yl)(6-(((3-(5-(methoxymethyl)isoxazol-3-yl)[1,2,4]triazolo[3,4-a]phthalazin-6-yl)oxy)methyl)pyridin-3-yl)methanone]
75.2 | COCc1cc(-c2nnc3c4ccccc4c(OCc4ccc(C(=O)N5CCCCC5)cn4)nn23)no1 [Compound 49, (6-(((3-(5-(methoxymethyl)isoxazol-3-yl)-[1,2,4]triazolo[3,4-a]phthalazin-6-yl)oxy)methyl)pyridin-3-yl)(piperidin-1-yl)methanone]
